Values quoted from earlier work as cited in patent US20230345942A1, “CORONA VIRUS KILLING AGENT” (SANKEI CO., LTD., priority 2020, published 2023).

Tests used:
Norovirus (alternative) = test system: Norovirus (alternative); design: key: ◯ Effective; ∇ Low efficacy; ⊚ Effective even in the presence of organic matter
[1] = as qualified in the cell (undiluted solution / at usage concentration)
Influenza = test system: Influenza; design: key: ◯ Effective; ∇ Low efficacy; ⊚ Effective even in the presence of organic matter
Novel coronavirus = test system: Novel coronavirus; design: key: ◯ Effective; ∇ Low efficacy; ⊚ Effective even in the presence of organic matter

SMILES | Antiviral activity: Norovirus (alternative) (Norovirus (alternative)) | Safety [1] | Antiviral activity: Influenza (Influenza) | Antiviral activity: Novel coronavirus (Novel coronavirus) | Antibacterial/fungal activity (bacteria, fungi) | Concentration required for an inactivation effect on enveloped viruses (enveloped viruses)
CCO [Disinfecting ethanol, Ethanol] | ∇ | Flammable | ◯ | ◯ | Broad range | 
OCl [Sodium hypochlorite] | ◯ | hazardous | ◯ | ◯ | Broad range | 
CCO [alcohol] |  |  |  |  |  | ≥ 70 % (v/v)
